# Experimental data reported in US20180169047A1, “AMINO ACID COMPOSITIONS AND METHODS FOR THE TREATMENT OF MUSCLE DISEASES AND DISORDERS” (AXCELLA HEALTH INC., priority 2016, published 2018).
# How the values were obtained:
# mTORC1 = mTORC1 activity assay: rpS6 phosphorylation (AlphaScreen SureFire) in C2C12 myotubes; assay type: cell-based, mouse; design: key to mTOR: statistically significant assay result: statistically significant assay results between 2X and 5X doses; ns - not significant; NT - not tested; conditions: for Avg fold change of intracellular rpS6 phosphorylation (P-rpS6) compared to untreated cells: C2C12 myotubes, 30 min, normalized to total protein; for mTOR: statistically significant assay result: between 2X and 5X doses, compared to untreated control
# Source text: Metabolism is controlled by the mTORC1 signaling complex, an essential protein kinase that regulates cellular processes such as protein synthesis and autophagy. A number of distinct signals control mTORC1 activity, including amino acids and growth factors like insulin, and proper regulation is necessary for the maintenance of muscle mass. Dysregulation of mTORC1 activity is associated with muscle wasting (atrophy) in many diseases, and conversely, addition of muscle mass (hypertrophy) requires protein synthesis-inducing mTORC1 signaling. The ability of different amino acids to induce mTORC1 signaling in myotubes was assessed using an alpha-elisa screen for phosphorylated ribosomal protein S6 (P-rpS6), an important substrate downstream of mTORC1 involved in promoting protein synthesis.
# In this example, murine muscle cells were incubated with a composition including amino acids and assessed for mTORC1 activation. C2C12, mouse muscle cells, were obtained from ATCC (CRL-1772, Manassas, VA). The cells were seeded on day 0 at 1.0E4 cells per well in 96-well TC-treated microplates (Corning, Corning, NY) in Dulbecco's Modified Eagle Medium (DMEM, Corning) supplemented with 10% fetal bovine serum (Corning) and 0.2% Primocin (InVivoGen, San Diego, Calif.) and incubated for 48 hours at 37° C., 5% CO2. On day 2, the medium was changed to DMEM (Corning) supplemented with 2% horse serum (Horse Serum, New Zealand origin, ThermoFisher, Waltham, MA) and 0.2% Primocin. On day 5, the medium was replaced with fresh DMEM supplemented with 2% horse serum and 0.2% Primocin.
# On day 7, the DMEM supplemented with 2% horse serum and 0.2% Primocin was replaced with amino acid free DMEM (US Biologicals, Salem, Mass.) containing a defined custom amino acid concentration based on 0.5× the mean physiological concentrations in blood based on values published in the Human Metabolome Database (HMDB (Wishart DS, Tzur D, Knox C, et al., HMDB: the Human Metabolome Database. Nucleic Acids Res. 2007 January; 35 (Database issue):D521-6. 17202168), with 25 mM Glucose, 1 mM Sodium Pyruvate and incubated for 2 hours at 37° C., 5% CO2. Next, the cell medium was replaced with amino acid free DMEM (US Biologicals, Salem, Mass.) containing a defined custom amino acid concentration based on 0.5× the mean physiological concentrations in blood based on values published in the HMDB and a dose curve of defined amino acid compositions listed in Table 5 at 4 doses relative to plasma levels (1×, 2×, 5× and 10×; as defined by mean amino acid concentrations in the HMDB database). Combinations containing N-acetylcysteine were dosed with 0.2 mM. Cells were treated for 30 min at 37° C., 5% CO2. After treatment, the cells were washed lx in 100uL cold phosphate-buffered saline 1×, pH 7.2 (PBS, ThermoFisher). For the detection of the intracellular rpS6 phosphorylation, the AlphaScreen SureFire cellular kinase assay kit (rpS6 ([…]) and the AlphaScreen protein A kit (PerkinElmer, Waltham, Mass.) were used.
# Data are presented as fold change of intracellular rpS6 phosphorylation in C2C12 myotubes normalized to the total protein amount compared to untreated cells. […] Statistical significance was determined by one-way ANOVA for each composition dose relative to untreated.
# C2C12 myotubes = test: Myotube growth assay: myotube area in C2C12 myotubes; assay type: cell-based, murine; design: key to GROWTH: statistically significant assay result: statistically significant assay results between 2X and 5X doses; ns - not significant; NT - not tested; conditions: for myotube growth dose response, Avg myotube area normalized to nuclear count: untreated = 1.000; for GROWTH: statistically significant assay result: between 2X and 5X doses, compared to untreated control
# Source text: Myotubes are multi-nucleated and elongated cells that express master regulators of skeletal muscle gene expression including MyoD and Myogenin. Myotubes are formed by differentiating myoblasts (muscle progenitor cells) for approximately 1 week. Once formed, myotubes size can be promoted (e.g. insulin) or inhibited (e.g. myostatin) with various molecules in order to assess effects on muscle size in vitro. C2C12 cells are commonly-used murine myogenic cells that upon differentiation form myotubes. C2C12 myotubes were used to test whether specific amino acid compositions can promote growth in vitro.
# C2C12 murine myoblast cells (ATCC CRL-1772) were seeded on day 0 at 1.0E4 cells per well in collagen I coated 96-well optical polymer microplates (ThermoFisher) in Dulbecco's Modified Eagle Medium (DMEM, Corning) supplemented with 10% heat inactivated fetal bovine serum (HI-FBS, Atlanta Biologicals) and 0.2% Primocin (InVivoGen) and incubated overnight at 37° C., 5% CO2. On day 1, media was washed and differentiation media (DMEM supplemented with 2% horse serum) was added to the cells and fresh differentiation media was also applied on Day 3. On Day 6, cells were washed with amino acid-free DMEM and then treated with basal growth media containing 0.2% dialyzed FBS and all amino acids at 0.25× concentrations found in plasma based on values reported in the Human Metabolome Database (HMDB).
# Fresh growth media and AA treatments were applied a second time on Day 8. On day 10, media was removed and cells were incubated in pre-warmed 4% Paraformaldehyde in PBS for 12 mins at room temperature and then washed 3× in PBS. Immunostaining with MHC (MF-20, University of Iowa Developmental Hybridoma Studies bank) was performed according to cell signaling general immunofluorescence protocol. Briefly, fixed cells were incubated in blocking buffer (5% normal goat serum 0.3% triton PBS) for 30-60 minutes, and then incubated overnight at 4° C. in primary antibody 1:1000 in antibody dilution buffer (1% BSA 0.3% triton in PBS). The next day the plate was equilibrated to room temperature, washed 3 times for 5 minutes in room temperature PBS and then with secondary antibody (Fab′ anti-mouse Alexa488, 1:2000) in antibody dilution buffer for 1-2 hours. Cells were washed 2 times for 5 minutes, incubated in Hoechst stain (Mol Probes 1:4000) for 10 minutes at room temperature, and washed an additional 2 times five minutes each in PBS. Molecular device HCS was used for image acquisition and analysis. Imaging was performed with a 10× wide field objective at both GFP and UV channels (FITC and DAPI) and analysis was performed using a modified version of the angiogenesis module in the MetaExpress Software measuring average total myotube area, myotube breadth, total nuclear counts, fused nuclear counts, and unfused nuclear counts.
# [1] = test system: C2C12 murine myoblast cells; test: Myogenesis assay: myotube differentiation of C2C12 myoblasts, MHC immunostaining; assay type: cell-based; design: key to MYOGENESIS: statistically significant assay result: statistically significant assay results between 2X and 5X doses; ns - not significant; NT - not tested; conditions: for myogenesis dose response, Avg fold-change to untreated: C2C12 myoblasts differentiated 4 days
# Source text: Myogenesis is the process of forming skeletal muscle fibers (myofibers) which contain the minimal contractile units (sarcomeres) responsible for force transduction and load bearing in higher eukaryotes. During development single nucleated myogenic cells fuse, differentiate, and induce expression of the cytoskeletal complexes required for muscle contraction. A highly similar process is induced in response to muscle injury where satellite cells, or skeletal muscle stem cells, are activated, differentiate and fuse with damaged myofibers, thereby contributing myonuclei and supporting muscle repair. C2C12 cells are murine myogenic cells that, upon differentiation, fuse to form multi-nucleated myotubes (primitive myofibers) that express master regulators of muscle-specific gene expression, for example myosin heavy chain, a critical component of sarcomeres. C2C12 cells were selected as a model of myogenesis and used to test whether specific amino acid compositions would promote formation of myotubes and expression of the myotube-specific marker myosin heavy chain.
# C2C12 murine myoblast cells were obtained from ATCC (CRL-1772) and seeded on day 0 at 1.0E4 cells per well in collagen I coated 96-well optical polymer microplates (ThermoFisher) in Dulbecco's Modified Eagle Medium (DMEM, Corning) supplemented with 10% heat inactivated fetal bovine serum (HI-FBS, Atlanta Biologicals) and 0.2% Primocin (InVivoGen) and incubated overnight at 37° C., 5% CO2. […] Cells were differentiated for 4 days at 37° C., 5% CO2 with a media replenishment and an additional amino acid composition or control treatment on Day 3. On day 5, the media was removed and cells were incubated in pre-warmed 4% Paraformaldehyde in PBS for 12 mins at room temperature and then washed 3× in PBS.
# Immunostaining with MHC (MF-20, University of Iowa Developmental Hybridoma Studies bank) was performed according to cell signaling general immunofluorescence protocol. Briefly, fixed cells were incubated in blocking buffer (5% normal goat serum 0.3% triton PBS) for 30 to 60 minutes, and then incubated overnight at 4° C. in primary antibody 1:1000 in antibody dilution buffer (1% BSA 0.3% triton in PBS). The next day the plate was equilibrated to room temperature, washed 3 times for 5 minutes in room temperature PBS and then with secondary antibody (Fab' anti-mouse Alexa488, 1:2000) in antibody dilution buffer for 1-2 hours. Cells were washed two times for 5 minutes, incubated in Hoechst stain (Mol Probes 1:4000) for 10 minutes at room temperature, and washed an additional two times for five minutes each in PBS. Molecular device HCS was used for image acquisition and analysis. Imaging was performed with a 10× wide field objective at both GFP and UV channels (FITC and DAPI) and analysis was performed using a custom module in the MetaExpress Software measuring average FITC intensity, integrated FITC intensity, and nuclear counts.
# The data is the average of 3 independent experiments.
# [2] = dose 1X relative to plasma levels
# [3] = dose 2X relative to plasma levels
# [4] = dose 5X relative to plasma levels
# [5] = dose 10X relative to plasma levels
# [6] = C2C12 myotubes, dose 1.25X relative to plasma levels
# [7] = C2C12 myotubes, dose 2.5X relative to plasma levels
# [8] = C2C12 myotubes, dose 5X relative to plasma levels
# [9] = C2C12 myotubes, dose 10X relative to plasma levels
SMILES,Avg fold change of intracellular rpS6 phosphorylation (P-rpS6) compared to untreated cells (mTORC1; [2]) [fold change],Avg fold change of intracellular rpS6 phosphorylation (P-rpS6) compared to untreated cells (mTORC1; [3]) [fold change],Avg fold change of intracellular rpS6 phosphorylation (P-rpS6) compared to untreated cells (mTORC1; [4]) [fold change],Avg fold change of intracellular rpS6 phosphorylation (P-rpS6) compared to untreated cells (mTORC1; [5]) [fold change],mTOR: statistically significant assay result (mTORC1),"myotube growth dose response, Avg myotube area normalized to nuclear count (C2C12 myotubes; [6])","myotube growth dose response, Avg myotube area normalized to nuclear count (C2C12 myotubes; [7])","myotube growth dose response, Avg myotube area normalized to nuclear count (C2C12 myotubes; [8])","myotube growth dose response, Avg myotube area normalized to nuclear count (C2C12 myotubes; [9])",GROWTH: statistically significant assay result (C2C12 myotubes),"myogenesis dose response, Avg fold-change to untreated ([1]; dose 1.25X relative to HMDB plasma levels) [fold-change]","myogenesis dose response, Avg fold-change to untreated ([1]; dose 2.5X relative to HMDB plasma levels) [fold-change]","myogenesis dose response, Avg fold-change to untreated ([1]; dose 5X relative to HMDB plasma levels) [fold-change]","myogenesis dose response, Avg fold-change to untreated ([1]; dose 10X relative to HMDB plasma levels) [fold-change]","MYOGENESIS: statistically significant assay result ([1]; between 2X and 5X doses, compared to untreated control)","area of myotubes in the culture well (in words) (C2C12 myotubes; C2C12 myotubes, across two experiments)"
"CC(=O)N[C@@H](CS)C(=O)O [Nac, N-acetylcysteine]",0.9198,0.8626,0.8741,0.9485,ns,1.121,1.036,1.153,1.267,ns,,,,,,
"NC(=O)CC[C@H](N)C(=O)O [Q, glutamine]",1.052,0.9176,0.8748,0.8139,ns,1.235,1.202,1.075,1.077,ns,1.127,1.066,1.087,1.041,ns,no effect or were inhibitory
